Molecular target: T1, human TLX (Homo sapiens, UniProt Q9Y466)
T1 construct: expressed in transfected cells; host or cells: HEK293T
Assay: Gal4 hybrid reporter gene assay (TLX modulation)
Type: cell-based
Design: key to relative reporter activity: fraction of DMSO control (DMSO = 1)
Settings: for EC50: Gal4-TLX hybrid reporter in HEK293T cells, 16 h incubation; for relative reporter activity: DMSO control = 1
Experimental: In the Tables, the TLX relative reporter activity is expressed as EC50 (in µM) for each listed compound. "EC50" refers to a measure of the concentration of a compound which induces a biological response halfway between the baseline and maximum after a specified exposure time. […] The EC50 is measured via a hybrid reporter gene assay, employing the transfection of a reporter (firefly luciferase with Gal4 response element), a control gene (Renilla luciferase), a transcriptional activator (Gal4-VP16) and a hybrid receptor consisting of the TLX ligand binding domain (LBD) and the Gal4 DNA binding domain (DBD).
Hybrid reporter gene assays. […] After 24 h, medium was changed to Opti-MEM without supplements and cells were transiently transfected using Lipofectamine LTX reagent (Invitrogen, Carlsbad, CA, USA) according to the manufacturer's protocol. Five hours after transfection, cells were incubated with the test compounds in Opti-MEM supplemented with penicillin (100 U/mL), streptomycin (100 µg/mL) and 0.1% DMSO for 16 h before luciferase activity was measured using the Dual-Glo Luciferase Assay System (Promega) according to the manufacturer's protocol on a Tecan Spark luminometer (Tecan Deutschland GmbH, Crailsheim, Germany). Firefly luminescence was divided by Renilla luminescence and multiplied by 1000 resulting in relative light units (RLU) to normalize for transfection efficiency and cell growth. Fold activation was obtained by dividing the mean RLU of test compound by the mean RLU of the untreated control. All samples were tested in at least three biologically independent experiments in duplicates. For dose-response curve fitting and calculation of EC50 values, the equation "[Agonist] vs. response -- Variable slope (four parameters)" was used in GraphPad Prism (version 7.00, GraphPad Software, La Jolla, CA, USA).

[1] = minimal remaining or maximum reporter activity after treatment, in brackets below the EC50, <1 agonism, >1 inverse agonism

T1 sequence (Q9Y466 155-383 limits assumed): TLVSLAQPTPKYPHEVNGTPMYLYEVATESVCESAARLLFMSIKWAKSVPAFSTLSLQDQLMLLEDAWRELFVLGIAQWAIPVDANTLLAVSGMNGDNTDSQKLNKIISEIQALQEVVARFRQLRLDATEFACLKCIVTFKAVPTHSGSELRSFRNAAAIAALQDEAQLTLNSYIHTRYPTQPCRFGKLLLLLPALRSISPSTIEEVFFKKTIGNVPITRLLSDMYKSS

| Structure (SMILES) | EC50 [µM] | relative reporter activity [1] | other results |
| --- | --- | --- | --- |
| Cn1cc(-c2cccc(N)c2)cn1 [compound 105, 3-(1-methyl-1H-pyrazol-4-yl)aniline] | – | – | relative reporter activity (at 30 µM): inactive at 30 µM |
| CC(=O)c1ccc(-c2cc(N)cc(C(F)(F)F)c2)s1 [compound 57, 1-(5-(3-amino-5-(trifluoromethyl)phenyl)thiophen-2-yl)ethan-1-one] | 4.4 ± 1.6 | – | – |
| Cc1cn(-c2cc(NC(=O)c3ccc(C(F)(F)F)cc3)cc(C(F)(F)F)c2)cn1 [compound 19, N-(3-(4-mefhyl-1H-imidazol-1-yl)-5-(trifluoromefhyl)phenyl)-4-(frifluoromethyl)-benzamide] | 3.3 ± 1.2 | 0.59±0.10 | – |
| Cc1cn(-c2cc(NC(=O)c3ccc(Cl)c(Cl)c3)cc(C(F)(F)F)c2)cn1 [compound 16, 3,4-dichloro-N-(3-(4-methyl-1H-imidazol-1-yl)-5-(trifluoromethyl)phenyl)-benzamide] | 2.1 ± 0.9 | 0.33±0.12 | – |
| Cc1cc(-c2cc(NC(=O)c3ccnc4ccccc34)cc(C(F)(F)F)c2)ccn1 [compound 75, N-(3-(2-methylpyridin-4-yl)-5-(trifluoromethyl)phenyl)quinoline-4-carboxamide] | 0.41 ± 0.11 | 0.26±0.05 | – |
| Nc1cc(-c2ccc3[nH]ccc3c2)cc(C(F)(F)F)c1 [compound 93, 3-(1H-indol-5-yl)-5-(trifluoromethyl)aniline] | 1.4 ± 0.4 | – | – |
| Cn1ncc2cc(-c3cc(N)cc(C(F)(F)F)c3)ccc21 [compound 97, 3-(1-methyl-1H-indazol-5-yl)-5-(trifluoromethyl)aniline] | 1.6 ± 0.9 | – | – |
| Cc1cc(-c2cc(N)cc(Cl)c2Cl)ccn1 [compound 114, 3,4-dichloro-5-(2-methylpyridin-4-yl)aniline] | 9.6 ± 0.7 | – | – |
| Cc1cn(-c2cccc(N)c2)cn1 [compound 101, 3-(4-methyl-1H-imidazol-1-yl)aniline] | – | – | relative reporter activity (at 30 µM): inactive at 30 µM |
| Nc1cc(-c2ccncc2)cc(C(F)(F)F)c1 [compound 73, 3-(pyridin-4-yl)-5-(trifluoromethyl)aniline] | 13 ± 4 | 0.18±0.13 | – |
| CC(=O)Nc1cc(-c2ccnc(C)c2)cc(C(F)(F)F)c1 [compound 79, N-(3-(2-methylpyridin-4-yl)-5-(trifluoromethyl)phenyl)acetamide] | 2.6 ± 0.4 | 0.18±0.06 | – |
| Cc1ccc(-c2cc(N)cc(C(F)(F)F)c2)cc1 [compound 67, 4'-methyl-5-(trifluoromethyl)-[1, 1 '-biphenyl]-3-amine] | – | – | relative reporter activity (at 30 µM): inactive at 30 µM |
| Nc1cc(-c2cncnc2)cc(C(F)(F)F)c1 [compound 66, 3-(pyrimidin-5-yl)-5-(trifluoromethyl)aniline] | 2.1 ± 0.5 | 0.40±0.06 | – |
| Nc1cc(-c2nccs2)cc(C(F)(F)F)c1 [compound 53, 3-(thiazol-2-yl)-5-(trifluoromethyl)aniline] | – | – | relative reporter activity (at 100 µM): (0.63±0.10 at 100 µM) |
| Cc1cn(-c2cc(NC(=O)c3ccc(Cl)c4ccccc34)cc(C(F)(F)F)c2)cn1 [compound 31, 4-chloro-N-(3-(4-methyl-1H-imidazol-1-yl)-5-(trifluoromethyl)phenyl)-1-naphthamide] | 1.8 ± 0.4 | 0.34±0.11 | – |
| Cc1cn(-c2cc(NC(=O)c3ccncc3)cc(C(F)(F)F)c2)cn1 [compound 11, N-(3-(4-methyl-1H-imidazol-1-yl)-5-(trifluoromethyl)phenyl)isonicotinamide] | – | – | relative reporter activity (at 20 µM): (0.41±0.05 at 20 µM) |
| CC(=O)c1cc(-c2cc(N)cc(C(F)(F)F)c2)cs1 [compound 60, 1-(4-(3-amino-5-(trifluoromethyl)phenyl)thiophen-2-yl)ethan-1-one] | 0.7 ± 0.3 | 0.24±0.07 | – |
| Nc1cc(-c2cn[nH]c2)cc(C(F)(F)F)c1 [compound 39, 3-(1H-Pyrazol-4-yl)-5-(trifluoromethyl)aniline] | – | – | relative reporter activity (at 50 µM): (0.35±0.06 at 50 µM) |
| Cc1cc(-c2cc(N)c3cc[nH]c3c2)ccn1 [compound 116, 6-(2-methylpyridin-4-yl)-1H-indol-4-amine] | – | – | relative reporter activity (at 50 µM): inactive at 50 µM |
| Cc1cc(-c2cc(N)cc(C(F)(F)F)c2)nn1C [compound 45, 3-(1,5-dimethyl-1H-pyrazol-3-yl)-5-(trifluoromethyl)aniline] | – | – | relative reporter activity (at 100 µM): (0.56±0.12 at 100 µM) |
| Cn1ccc2cc(-c3cc(N)cc(C(F)(F)F)c3)cnc21 [compound 98, 3-(1-methyl-1H-pyrrolo[2,3-b]pyridin-5-yl)-5-(trifluoromethyl)aniline] | 0.4 ± 0.07 | 0.29±0.03 | – |
| Cc1cn(-c2cc(NC(=O)Cc3cccnc3)cc(C(F)(F)F)c2)cn1 [compound 21, N-(3-(4-methyl-1H-imidazol-1-yl)-5-(trifluoromethyl)phenyl)-2-(pyridin-3-yl)acetamide] | 1.4 ± 0.3 | 0.21±0.07 | – |
| Cc1nc(-c2cc(N)cc(C(F)(F)F)c2)cn1C [compound 50, 3-(1,2-dimethyl-1H-imidazol-4-yl)-5-(trifluoromethyl)aniline] | – | – | relative reporter activity (at 100 µM): (0.70±0.06 at 100 µM) |
| Cc1noc(C)c1-c1cc(N)cc(C(F)(F)F)c1 [compound 42, 3-(3,5-dimethylisoxazol-4-yl)-5-(trifluoromethyl)aniline] | – | – | relative reporter activity (at 10 µM): (0.70±0.07 at 10 µM) |
| Cc1cc(-c2cc(N)cc(Cl)c2)ccn1 [compound 111, 3-chloro-5-(2-methylpyridin-4-yl)aniline] | 10 ± 7 | – | – |
| Cn1cnc(-c2cc(N)cc(C(F)(F)F)c2)n1 [compound 44, 3-(1-methyl-1H-1,2,4-triazol-3-yl)-5-(trifluoromethyl)aniline] | – | – | relative reporter activity (at 100 µM): (0.63±0.04 at 100 µM) |
| Cc1cc(-c2cc(NC(=O)c3ccc(Cl)c(Cl)c3)cc(C(F)(F)F)c2)ccn1 [compound 78, 3,4-dichloro-N-(3-(2-methylpyridin-4-yl)-5-(trifluoromethyl)phenyl)benzamide] | 0.6 ± 0.2 | 0.51±0.5 | – |

Further lines, with some results ahead:

| EC50 [µM] | relative reporter activity [1] | Structure (SMILES) | other results |
| --- | --- | --- | --- |
| 3.8 ± 0.7 | – | Cc1cc(-c2cc(N)cc3[nH]ccc23)ccn1 [compound 115, 4-(2-methylpyridin-4-yl)-1H-indol-6-amine] | – |
| 9.5 ± 4.4 | 0.43±0.11 | Cn1cc(-c2cc(N)cc(C(F)(F)F)c2)cn1 [compound 38, 3-(1-methyl-1H-pyrazol-4-yl)-5-(trifluoromethyl)aniline] | – |
| 6.3 ± 2.1 | – | Cc1cc(-c2cc(N)cc(C(F)(F)F)c2)cnc1C [compound 69, 3-(5,6-dimethylpyridin-3-yl)-5-(trifluoromethyl)aniline] | – |
| 3.9 ± 1.6 | 0.49±0.11 | Cc1c(-c2cc(N)cc(C(F)(F)F)c2)cnn1C [compound 49, 3-(1,5-dimethyl-1H-pyrazol-4-yl)-5-(trifluoromethyl)aniline] | – |
| 6.6 ± 2.1 | – | Cc1cc(-c2cc(N)cc(C(F)(F)F)c2)ccn1 [compound 74, 3-(2-methylpyridin-4-yl)-5-(trifluoromethyl)aniline] | – |
| 1.9 ± 0.5 | 0.18±0.10 | Cc1cn(-c2cccc(NC(=O)Cc3ccccc3Cl)c2)cn1 [compound 103, 2-(2-chlorophenyl)-N-(3-(4-methyl-1H-imidazol-1-yl)phenyl)acetamide] | – |
| 15 ± 4 | – | COc1cc(N)cc(-c2ccnc(C)c2)c1 [compound 108, 3-methoxy-5-(2-methylpyridin-4-yl)aniline] | – |
| 3.7 ± 0.6 | – | Nc1cc(-c2ccn3ccnc3c2)cc(C(F)(F)F)c1 [compound 94, 3-(imidazo[1,2-a]pyridin-7-yl)-5-(trifluoromethyl)aniline] | – |
| 1.1 ± 0.1 | – | Cn1ccc2cc(-c3cc(N)cc(C(F)(F)F)c3)ccc21 [compound 90, 3-(1-methyl-1H-indol-5-yl)-5-(trifluoromethyl)aniline] | – |
| 4.6 ± 2.4 | – | CC(=O)c1cncc(-c2cc(N)cc(C(F)(F)F)c2)c1 [compound 70, 1-(5-(3-amino-5-(trifluoromethyl)phenyl)pyridin-3-yl)ethan-1-one] | – |
| 15 ± 7 | 0.23±0.15 | Nc1cc(-n2cccc2)cc(C(F)(F)F)c1 [compound 34, 3-(1H-pyrrol-1-yl)-5-(trifluoromethyl)aniline] | – |
| 8 ± 1 | 0.38±0.08 | Cc1cn(-c2cc(NC(=O)c3ccccc3)cc(C(F)(F)F)c2)cn1 [compound 14, N-(3-(4-methyl-1H-imidazol-1-yl)-5-(trifluoromethyl)phenyl)benzamide] | – |
| 18 ± 1 | – | Cn1ccc2c(-c3cc(N)cc(C(F)(F)F)c3)cccc21 [compound 100, 3-(1-Methyl-1H-indol-4-yl)-5-(trifluoromethyl)aniline] | relative reporter activity (at 10 µM): 0.55±0.06 |
| – | 0.26±0.05 | CC(=O)c1nc(-c2cc(N)cc(C(F)(F)F)c2)cs1 [compound 65, 1-(4-(3-Amino-5-(trifluoromethyl)phenyl)thiazol-2-yl)ethan-1-one] | – |

Source: patent EP4650002A1 (Ludwig-Maximilians-Universität, priority 2024, dated 2025)
